Data as given in ChEMBL document CHEMBL4507282, “Data for DCP probe BI-1950” (2021).

Columns and labels:
[1] = biological target: Atypical kinase COQ8A, mitochondrial (Homo sapiens) (UniProt Q8NI60); settings: Compound concentration 1000.0 nM
[2] = biological target: Cyclin-dependent kinase-like 5 (Homo sapiens) (UniProt O76039); settings: Compound concentration 1000.0 nM
[3] = biological target: Tyrosine-protein kinase CSK (Homo sapiens) (UniProt P41240); settings: Compound concentration 1000.0 nM
[4] = biological target: Casein kinase I isoform delta (Homo sapiens) (UniProt P48730); settings: Compound concentration 1000.0 nM
[5] = biological target: Epithelial discoidin domain-containing receptor 1 (Homo sapiens) (UniProt Q08345); settings: Compound concentration 1000.0 nM
[6] = biological target: Tyrosine-protein kinase Fer (Homo sapiens) (UniProt P16591); settings: Compound concentration 1000.0 nM
[7] = system: Receptor-type tyrosine-protein kinase FLT3 (Homo sapiens), P36888 [UNDEFINED MUTATION]; settings: Compound concentration 1000.0 nM
Chain of Receptor-type tyrosine-protein kinase FLT3 (Homo sapiens), P36888 [UNDEFINED MUTATION] (P36888 whole entry, looked up, change not shown): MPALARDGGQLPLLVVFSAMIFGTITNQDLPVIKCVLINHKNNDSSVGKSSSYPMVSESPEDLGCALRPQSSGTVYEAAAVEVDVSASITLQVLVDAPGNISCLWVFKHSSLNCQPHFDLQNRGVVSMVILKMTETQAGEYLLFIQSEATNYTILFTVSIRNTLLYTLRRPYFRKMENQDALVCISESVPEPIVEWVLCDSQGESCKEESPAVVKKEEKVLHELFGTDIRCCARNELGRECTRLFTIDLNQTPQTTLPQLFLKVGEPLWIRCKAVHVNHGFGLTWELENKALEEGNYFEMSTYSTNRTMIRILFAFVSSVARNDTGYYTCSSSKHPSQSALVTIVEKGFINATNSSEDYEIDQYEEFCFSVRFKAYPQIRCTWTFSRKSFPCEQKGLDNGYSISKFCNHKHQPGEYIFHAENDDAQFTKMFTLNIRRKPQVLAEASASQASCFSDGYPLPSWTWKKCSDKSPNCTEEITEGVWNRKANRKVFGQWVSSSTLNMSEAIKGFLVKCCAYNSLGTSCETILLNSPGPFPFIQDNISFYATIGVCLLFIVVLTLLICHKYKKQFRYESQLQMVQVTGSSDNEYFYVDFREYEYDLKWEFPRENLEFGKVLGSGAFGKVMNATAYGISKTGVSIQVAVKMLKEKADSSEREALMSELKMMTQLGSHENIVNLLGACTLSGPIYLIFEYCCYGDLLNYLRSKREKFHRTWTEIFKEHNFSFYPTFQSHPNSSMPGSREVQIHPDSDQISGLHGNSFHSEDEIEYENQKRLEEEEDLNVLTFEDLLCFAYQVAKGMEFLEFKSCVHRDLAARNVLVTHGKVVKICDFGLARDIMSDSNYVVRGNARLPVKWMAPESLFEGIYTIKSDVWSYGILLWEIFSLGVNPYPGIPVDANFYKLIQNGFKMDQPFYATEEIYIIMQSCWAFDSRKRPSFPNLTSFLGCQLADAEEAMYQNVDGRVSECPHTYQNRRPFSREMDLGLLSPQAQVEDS

[8] = system: Receptor-type tyrosine-protein kinase FLT3 (Homo sapiens), P36888 [UNDEFINED MUTATION]; settings: Compound concentration 1000.0 nM; remark: listed apart in the source
[9] = biological target: Rhodopsin kinase GRK1 (Homo sapiens) (UniProt Q15835); settings: Compound concentration 1000.0 nM
[10] = biological target: Homeodomain-interacting protein kinase 1 (Homo sapiens) (UniProt Q86Z02); settings: Compound concentration 1000.0 nM
[11] = biological target: Tyrosine-protein kinase JAK2 (Homo sapiens) (UniProt O60674); settings: Compound concentration 1000.0 nM
[12] = biological target: Serine/threonine-protein kinase LATS1 (Homo sapiens) (UniProt O95835); settings: Compound concentration 1000.0 nM
[13] = biological target: Serine/threonine-protein kinase 10 (Homo sapiens) (UniProt O94804); settings: Compound concentration 1000.0 nM
[14] = biological target: Serine/threonine-protein kinase MARK1 (Homo sapiens) (UniProt Q9P0L2); settings: Compound concentration 1000.0 nM
[15] = biological target: Mitogen-activated protein kinase kinase kinase 9 (Homo sapiens) (UniProt P80192); settings: Compound concentration 1000.0 nM
Chain of Mitogen-activated protein kinase kinase kinase 9 (Homo sapiens) (P80192 whole entry, looked up): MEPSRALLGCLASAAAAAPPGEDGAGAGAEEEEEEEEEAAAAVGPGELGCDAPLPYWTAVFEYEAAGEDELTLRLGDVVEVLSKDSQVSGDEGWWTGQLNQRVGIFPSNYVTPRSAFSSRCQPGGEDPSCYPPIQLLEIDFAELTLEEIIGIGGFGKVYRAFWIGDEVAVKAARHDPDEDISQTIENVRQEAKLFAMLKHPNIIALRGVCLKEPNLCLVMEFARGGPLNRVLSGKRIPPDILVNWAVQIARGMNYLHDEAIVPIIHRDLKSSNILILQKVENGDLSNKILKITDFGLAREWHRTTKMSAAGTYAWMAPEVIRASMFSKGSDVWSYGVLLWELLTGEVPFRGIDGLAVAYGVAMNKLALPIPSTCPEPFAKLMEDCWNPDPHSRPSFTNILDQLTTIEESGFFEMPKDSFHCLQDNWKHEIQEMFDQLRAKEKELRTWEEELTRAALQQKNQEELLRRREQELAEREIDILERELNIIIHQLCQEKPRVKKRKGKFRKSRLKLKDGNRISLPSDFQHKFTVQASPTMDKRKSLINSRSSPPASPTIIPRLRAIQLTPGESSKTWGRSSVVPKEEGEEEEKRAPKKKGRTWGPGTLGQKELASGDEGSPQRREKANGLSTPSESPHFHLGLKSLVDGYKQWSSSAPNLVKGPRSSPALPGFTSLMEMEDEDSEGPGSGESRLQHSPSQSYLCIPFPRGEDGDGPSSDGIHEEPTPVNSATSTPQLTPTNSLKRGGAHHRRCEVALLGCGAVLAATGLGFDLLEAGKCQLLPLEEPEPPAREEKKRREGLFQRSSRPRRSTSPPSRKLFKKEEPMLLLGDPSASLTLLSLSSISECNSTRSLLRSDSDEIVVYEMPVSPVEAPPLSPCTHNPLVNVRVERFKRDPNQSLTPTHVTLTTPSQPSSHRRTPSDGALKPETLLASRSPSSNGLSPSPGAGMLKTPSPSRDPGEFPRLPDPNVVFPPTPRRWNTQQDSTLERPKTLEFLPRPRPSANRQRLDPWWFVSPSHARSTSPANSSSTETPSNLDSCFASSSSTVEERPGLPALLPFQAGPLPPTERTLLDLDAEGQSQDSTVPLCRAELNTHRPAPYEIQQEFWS

[16] = biological target: Serine/threonine-protein kinase MRCK beta (Homo sapiens) (UniProt Q9Y5S2); settings: Compound concentration 1000.0 nM
[17] = biological target: Macrophage-stimulating protein receptor (Homo sapiens) (UniProt Q04912); settings: Compound concentration 1000.0 nM
[18] = biological target: Serine/threonine-protein kinase Nek5 (Homo sapiens) (UniProt Q6P3R8); settings: Compound concentration 1000.0 nM
[19] = biological target: Cyclin-dependent kinase 16 (Homo sapiens) (UniProt Q00536); settings: Compound concentration 1000.0 nM
[20] = biological target: Cyclin-dependent kinase 18 (Homo sapiens) (UniProt Q07002); settings: Compound concentration 1000.0 nM
[21] = biological target: Platelet-derived growth factor receptor beta (Homo sapiens) (UniProt P09619); settings: Compound concentration 1000.0 nM
[22] = biological target: Phosphorylase b kinase regulatory subunit alpha, liver isoform (Homo sapiens) (UniProt P46019); settings: Compound concentration 1000.0 nM
[23] = biological target: Phosphatidylinositol 3-kinase C2 domain-containing subunit gamma (Homo sapiens) (UniProt O75747); settings: Compound concentration 1000.0 nM
[24] = biological target: Phosphatidylinositol 5-phosphate 4-kinase type-2 beta (Homo sapiens) (UniProt P78356); settings: Compound concentration 1000.0 nM
[25] = biological target: Membrane-associated tyrosine- and threonine-specific cdc2-inhibitory kinase (Homo sapiens) (UniProt Q99640); settings: Compound concentration 1000.0 nM
[26] = biological target: Protein kinase C eta type (Homo sapiens) (UniProt P24723); settings: Compound concentration 1000.0 nM
[27] = biological target: Protein kinase C iota type (Homo sapiens) (UniProt P41743); settings: Compound concentration 1000.0 nM
[28] = biological target: Protein kinase C theta type (Homo sapiens) (UniProt Q04759); settings: Compound concentration 1000.0 nM
[29] = biological target: Serine/threonine-protein kinase PRP4 homolog (Homo sapiens) (UniProt Q13523); settings: Compound concentration 1000.0 nM
[30] = system: Proto-oncogene tyrosine-protein kinase receptor Ret (Homo sapiens), P07949 [M918T]; settings: Compound concentration 1000.0 nM
Chain of Proto-oncogene tyrosine-protein kinase receptor Ret (Homo sapiens), P07949 [M918T] (P07949 whole entry M918T): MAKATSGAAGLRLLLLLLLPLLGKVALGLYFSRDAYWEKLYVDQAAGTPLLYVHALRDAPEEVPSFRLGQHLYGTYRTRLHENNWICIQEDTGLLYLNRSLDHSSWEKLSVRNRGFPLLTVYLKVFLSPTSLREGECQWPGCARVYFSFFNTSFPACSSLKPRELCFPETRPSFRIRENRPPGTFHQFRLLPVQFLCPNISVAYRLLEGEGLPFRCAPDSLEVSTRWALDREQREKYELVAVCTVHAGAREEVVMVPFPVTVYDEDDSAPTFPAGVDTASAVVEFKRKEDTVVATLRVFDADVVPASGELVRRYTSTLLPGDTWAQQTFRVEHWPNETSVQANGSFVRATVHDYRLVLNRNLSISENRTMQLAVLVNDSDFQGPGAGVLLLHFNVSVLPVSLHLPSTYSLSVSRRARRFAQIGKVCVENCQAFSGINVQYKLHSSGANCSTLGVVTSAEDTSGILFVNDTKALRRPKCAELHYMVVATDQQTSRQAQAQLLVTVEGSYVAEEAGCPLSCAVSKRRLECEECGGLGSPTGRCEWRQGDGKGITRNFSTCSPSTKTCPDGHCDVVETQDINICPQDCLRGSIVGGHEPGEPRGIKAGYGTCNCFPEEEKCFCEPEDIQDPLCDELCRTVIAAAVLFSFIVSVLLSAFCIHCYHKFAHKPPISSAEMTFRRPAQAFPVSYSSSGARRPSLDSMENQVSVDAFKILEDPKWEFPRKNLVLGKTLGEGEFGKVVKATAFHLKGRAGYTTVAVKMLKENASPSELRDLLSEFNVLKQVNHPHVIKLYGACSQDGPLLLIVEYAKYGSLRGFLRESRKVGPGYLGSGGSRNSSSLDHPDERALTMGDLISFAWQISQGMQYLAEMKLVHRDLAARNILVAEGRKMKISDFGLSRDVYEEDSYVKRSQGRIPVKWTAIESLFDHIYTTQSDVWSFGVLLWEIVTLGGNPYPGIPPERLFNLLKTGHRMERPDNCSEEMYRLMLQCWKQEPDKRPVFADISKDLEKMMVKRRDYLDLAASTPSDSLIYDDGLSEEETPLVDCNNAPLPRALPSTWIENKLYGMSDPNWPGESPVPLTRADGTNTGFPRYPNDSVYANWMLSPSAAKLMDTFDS

[31] = biological target: Ribosomal protein S6 kinase alpha-6 (Homo sapiens) (UniProt Q9UK32); settings: Compound concentration 1000.0 nM
[32] = biological target: Serine/threonine-protein kinase 35 (Homo sapiens) (UniProt Q8TDR2); settings: Compound concentration 1000.0 nM
[33] = biological target: Mitogen-activated protein kinase kinase kinase 7 (Homo sapiens) (UniProt O43318); settings: Compound concentration 1000.0 nM
Chain of Mitogen-activated protein kinase kinase kinase 7 (Homo sapiens) (O43318 whole entry): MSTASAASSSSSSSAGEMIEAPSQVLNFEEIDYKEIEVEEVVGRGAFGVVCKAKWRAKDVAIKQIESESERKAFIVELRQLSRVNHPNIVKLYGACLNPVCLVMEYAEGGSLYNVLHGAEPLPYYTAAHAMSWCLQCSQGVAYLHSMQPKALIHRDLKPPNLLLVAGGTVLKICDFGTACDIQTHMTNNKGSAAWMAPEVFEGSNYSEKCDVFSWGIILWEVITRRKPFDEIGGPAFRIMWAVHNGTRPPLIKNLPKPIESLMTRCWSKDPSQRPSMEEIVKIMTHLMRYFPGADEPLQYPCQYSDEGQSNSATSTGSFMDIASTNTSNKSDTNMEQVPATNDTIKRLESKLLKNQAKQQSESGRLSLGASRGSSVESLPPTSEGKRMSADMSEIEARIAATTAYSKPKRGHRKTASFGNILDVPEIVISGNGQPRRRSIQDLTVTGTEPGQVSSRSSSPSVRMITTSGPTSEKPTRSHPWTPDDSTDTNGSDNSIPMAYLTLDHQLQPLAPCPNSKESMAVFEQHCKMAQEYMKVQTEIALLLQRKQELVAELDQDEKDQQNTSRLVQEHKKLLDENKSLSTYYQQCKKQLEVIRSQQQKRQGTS

[34] = biological target: High affinity nerve growth factor receptor (Homo sapiens) (UniProt P04629); settings: Compound concentration 1000.0 nM
Chain of High affinity nerve growth factor receptor (Homo sapiens) (P04629 33-796 limits assumed): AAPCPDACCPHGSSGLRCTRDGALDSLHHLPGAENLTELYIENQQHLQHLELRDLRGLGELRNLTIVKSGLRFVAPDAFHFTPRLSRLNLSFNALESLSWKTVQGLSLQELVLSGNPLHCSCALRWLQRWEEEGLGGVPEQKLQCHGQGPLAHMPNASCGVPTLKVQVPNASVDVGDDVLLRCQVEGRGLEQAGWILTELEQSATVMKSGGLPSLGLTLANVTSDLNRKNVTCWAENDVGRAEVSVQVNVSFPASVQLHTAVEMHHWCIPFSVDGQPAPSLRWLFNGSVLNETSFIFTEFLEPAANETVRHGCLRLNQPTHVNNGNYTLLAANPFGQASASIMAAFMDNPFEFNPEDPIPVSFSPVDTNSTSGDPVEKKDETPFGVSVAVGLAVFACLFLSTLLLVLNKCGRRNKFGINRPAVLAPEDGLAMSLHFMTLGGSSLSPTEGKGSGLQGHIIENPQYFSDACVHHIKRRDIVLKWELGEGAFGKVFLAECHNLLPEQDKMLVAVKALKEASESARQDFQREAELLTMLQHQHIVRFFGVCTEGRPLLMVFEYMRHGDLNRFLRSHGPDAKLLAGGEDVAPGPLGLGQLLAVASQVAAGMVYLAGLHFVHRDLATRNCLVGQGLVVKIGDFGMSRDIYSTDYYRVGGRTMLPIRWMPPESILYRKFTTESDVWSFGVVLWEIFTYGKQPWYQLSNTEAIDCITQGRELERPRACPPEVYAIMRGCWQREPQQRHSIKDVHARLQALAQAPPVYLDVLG

[35] = biological target: Serine/threonine-protein kinase ULK2 (Homo sapiens) (UniProt Q8IYT8); settings: Compound concentration 1000.0 nM
[36] = biological target: Serine/threonine-protein kinase 32A (Homo sapiens) (UniProt Q8WU08); settings: Compound concentration 1000.0 nM
Chain of Serine/threonine-protein kinase 32A (Homo sapiens) (Q8WU08 whole entry): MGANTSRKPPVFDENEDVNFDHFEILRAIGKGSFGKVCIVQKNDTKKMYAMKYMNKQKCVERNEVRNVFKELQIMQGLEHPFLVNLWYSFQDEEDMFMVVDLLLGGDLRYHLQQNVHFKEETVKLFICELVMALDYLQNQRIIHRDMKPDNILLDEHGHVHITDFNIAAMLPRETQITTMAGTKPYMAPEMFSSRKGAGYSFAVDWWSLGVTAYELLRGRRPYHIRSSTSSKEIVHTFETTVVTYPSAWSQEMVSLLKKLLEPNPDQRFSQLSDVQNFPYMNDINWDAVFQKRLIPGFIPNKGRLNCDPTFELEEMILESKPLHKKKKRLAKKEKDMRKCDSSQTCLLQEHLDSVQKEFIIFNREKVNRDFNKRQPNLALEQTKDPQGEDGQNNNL

[37] = biological target: T1, 5-hydroxytryptamine receptor 3A (Homo sapiens) (UniProt P46098); settings: Compound concentration 10.0 uM
T1 sequence (whole entry): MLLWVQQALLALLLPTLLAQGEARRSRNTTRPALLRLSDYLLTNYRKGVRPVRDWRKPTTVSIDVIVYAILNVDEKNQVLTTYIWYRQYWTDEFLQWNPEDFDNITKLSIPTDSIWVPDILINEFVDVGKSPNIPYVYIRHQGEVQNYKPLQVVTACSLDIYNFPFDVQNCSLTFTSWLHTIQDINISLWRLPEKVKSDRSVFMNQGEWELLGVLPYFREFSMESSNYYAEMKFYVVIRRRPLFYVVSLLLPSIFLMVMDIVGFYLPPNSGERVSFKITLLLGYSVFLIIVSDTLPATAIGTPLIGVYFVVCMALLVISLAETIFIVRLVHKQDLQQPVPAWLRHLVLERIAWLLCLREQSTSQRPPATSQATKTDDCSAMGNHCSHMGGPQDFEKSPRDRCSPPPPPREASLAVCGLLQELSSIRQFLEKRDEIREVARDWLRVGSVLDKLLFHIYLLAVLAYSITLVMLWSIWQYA

[38] = biological target: Mu-type opioid receptor (Homo sapiens) (UniProt P35372); settings: Compound concentration 10.0 uM

C[C@H](NC(=O)c1cnc2n1[C@](C)(Cc1ccc(C#N)cc1)C(=O)N2c1cc(Cl)c(F)c(Cl)c1)C(=O)NC1(c2ccccn2)CC1 [BI 1950]
inactive: residual activity [1] 100% | residual activity [2] 100% | residual activity [3] 100% | residual activity [4] 100% | residual activity [5] 100% | residual activity [6] 100% | residual activity [7] 100% | residual activity [8] 100% | residual activity [9] 100% | residual activity [10] 97% | residual activity [11] 100% | residual activity [12] 100% | residual activity [13] 100% | residual activity [14] 100% | residual activity [15] 100% | residual activity [16] 100% | residual activity [17] 100% | residual activity [18] 100% | residual activity [19] 100% | residual activity [20] 100% | residual activity [21] 91% | residual activity [22] 100% | residual activity [23] 100% | residual activity [24] 100% | residual activity [25] 79% | residual activity [26] 90% | residual activity [27] 100% | residual activity [28] 100% | residual activity [29] 77% | residual activity [30] 100% | residual activity [31] 91% | residual activity [32] 100% | residual activity [33] 97% | residual activity [34] 98% | residual activity [35] 100% | residual activity [36] 83% | inhibition [37] -2.51% | inhibition [38] 17.4%

C[C@@]1(Cc2ccc(C#N)cc2)C(=O)N(c2cc(Cl)cc(Cl)c2)c2ncc(C(=O)NC3(c4nc(C5CCC5)no4)CC3)n21 [BI 9446]
inactive: residual activity [1] 90% | residual activity [2] 100% | residual activity [3] 98% | residual activity [4] 100% | residual activity [5] 81% | residual activity [6] 100% | residual activity [7] 100% | residual activity [8] 100% | residual activity [9] 100% | residual activity [10] 100% | residual activity [11] 100% | residual activity [12] 96% | residual activity [13] 100% | residual activity [14] 100% | residual activity [15] 100% | residual activity [16] 100% | residual activity [17] 100% | residual activity [18] 100% | residual activity [19] 97% | residual activity [20] 100% | residual activity [21] 100% | residual activity [22] 100% | residual activity [23] 100% | residual activity [24] 97% | residual activity [25] 75% | residual activity [26] 100% | residual activity [27] 87% | residual activity [28] 98% | residual activity [29] 91% | residual activity [30] 100% | residual activity [31] 100% | residual activity [32] 100% | residual activity [33] 96% | residual activity [34] 100% | residual activity [35] 100% | residual activity [36] 100% | inhibition [37] 17.9% | inhibition [38] 31.1%
